Converted amounts (≈) assume the structure as drawn. “Also recorded” adds a separate entry of the source.
Key:
S. cerevisiae [1] = test: adenylate kinase (AK) assay with S. cerevisiae (yeast cell lysis); format: cell-based; conditions: for AK assay result (fungilytic activity): screen of Prestwick Library
Protocol: A high throughput assay that detects molecules that cause yeast cell lysis was recently developed as a new method for anti-fungal drug discovery (Krysan and DiDone, J. Biomol. Screen 13:657-64 (2008)). The adenylate kinase (AK) assay has three important features that make it a very useful tool for the identification of fungicidal anti-cryptococcal molecules: it is specific for fungicidal molecules; it is cell-based; and it is carried out with C. neoformans directly.
(§1) The AK assay was designed to take advantage of the fact that dead yeast cells lose membrane integrity and leak intracellular enzymes and proteins into culture medium. Upon cell lysis, AK is released into the medium and is detected by a coupled enzyme reaction in which AK converts 2 molecules of ADP into ATP. The ATP and luciferin are used by luciferase and a luminescent signal is generated as a reporter of yeast cell lysis (FIG. 1). The AK assay is specific for molecules that are fungicidal and is more sensitive than traditional growth-based antifungal screening assays. Additionally, traditional growth-based screening cannot differentiate between fungistatic and fungicidal molecules.
As part of the validation studies, a library of 1200 previously marketed drugs (Prestwick Library) was screened using the AK assay with S. cerevisiae (Krysan and DiDone, J. Biomol. Screen 13:657-64 (2008)). The library contained 15 clinically used antifungal drugs, of which 9 scored positive as fungilytic. […] In addition to molecules with known antifungal activity, fungilytic activity was identified in 10 drugs for which no antifungal activity had been reported previously (FIG. 3B). Subsequently, the antifungal activity of two drugs, astemizole and suloctidil was confirmed by other laboratories (Vu and Gelli, Med. Mycol. 1-9 (2009)). Thus, the AK assay is a sensitive reporter of antifungal activity in the HTS setting.

C. neoformans [2] = test: AK assay with C. neoformans (lysis); format: cell-based
Text: as §1, with “The AK assay is specific for molecules that are fungicidal and is more sensitive than traditional growth-based antifungal screening assays.” left out
In order to determine whether the AK assay was applicable to C. neoformans, a set of molecules containing drugs was tested. […] Agents Chemother.

S. cerevisiae cells = test: growth assay / MIC with S. cerevisiae cells; format: cell-based; conditions: Saccharomyces cerevisiae; this strain of S. cerevisiae cells; read-out: minimum inhibitory concentration (MIC)
C. albicans [3] = test: follow-up lysis assay with C. albicans; format: cell-based
Myo2-GFP = Myo2-GFP localization to bud neck/septum during mitosis; format: cell-based, yeast
S. cerevisiae [4] = test: chemical genetic analysis: growth of S. cerevisiae PKC1/CMD1 strains on tamoxifen plates; format: cell-based
Text: Previously, the molecular target of tamoxifen and related compounds in yeast was unknown. […] Both of these proteins are essential in yeast.

calmodulin with Myo2p = test system: T1, calmodulin with Myo2p; test: pull down of Myo2-GFP by sepharose bead immobilized calmodulin from yeast cell lysates; format: binding; conditions: in vitro, crude yeast cell lysates
T1 construct: host or cells: Myo2-GFP came from crude lysates of yeast cells expressing it

C. albicans [5] = test: mouse model of disseminated candidiasis, kidney fungal burden; format: in vivo; conditions: mice, 7 day pre-treatment at 200 mg/kg, C. albicans tail vein injection, 48 hour kidney burden
Protocol: FIGS. 5A and 5B show in vitro and in vivo antifungal activity of TAM/CLM.
Mice were treated with either sham or tamoxifen for seven days prior to challenge with C. albicans by tail vein injection. […] The mice were treated for an additional two days, sacrificed, and kidney fungal burdens determined. Kidney fungal burden is a well-characterized quantitative endpoint that correlates with efficacy. […] These studies further support the potential utility of this class of molecules as antifungal agents.

C. albicans [6] = test: MIC against C. albicans; format: cell-based; conditions: Candida albicans
Protocol: (§2) To complete the characterization of the antifungal activity of triphenylethylene-based estrogen receptor antagonists, toremifene was also evaluated. […] The interaction of toremifene with FLC was also evaluated using checkerboard methods.

C. neoformans [7] = test: MIC against C. neoformans; format: cell-based; conditions: for MIC: Cryptococcus neoformans
Protocol: as §2

C. neoformans [8] = test: non-antibody mediated phagocytosis of C. neoformans by J774 cells; format: cell-based, murine; conditions: absence of opsonization; subinhibitory toremifene 4 μg/ml overnight
Protocol: C. neoformans JEC21 cells were treated overnight with DMSO or subinhibitory toremifene (4 μg/ml), washed, and exposed to J774 macrophage cells for 2 hours without antibody.

pathogenic yeast = test: in vitro susceptibility testing of a range of pathogenic yeast, CLSI standardized methods; format: cell-based
C. neoformans [9] = conditions: cited from earlier work
[10] = other laboratories (Vu and Gelli); cited from earlier work
C. neoformans [11] = conditions: reported by Vu and Gelli; cited from earlier work

In the case of CC[C@H](C)C[C@H](C)CCCCCCCCC(=O)N[C@H]1C[C@@H](O)[C@@H](NCCN)NC(=O)[C@@H]2[C@@H](O)CCN2C(=O)[C@H]([C@H](O)CCN)NC(=O)[C@H]([C@H](O)[C@@H](O)c2ccc(O)cc2)NC(=O)[C@@H]2C[C@@H](O)CN2C(=O)[C@H]([C@@H](C)O)NC1=O [caspofungin], the “concentration inducing AK release relative to concentration causing detectable change in growth rate” value (S. cerevisiae [1]; fold below) was roughly 10 fold, the “AK release / lysis” value (C. neoformans [2]) was “not” and the MIC (S. cerevisiae cells) was 0.062 µg/mL (≈ 0.0567 µM).

With CC/C(=C(\c1ccccc1)c1ccc(OCCN(C)C)cc1)c1ccccc1 [tamoxifen] the lysis (C. albicans [3]) was “cause lysis”, the “AK assay result (fungilytic activity)” value (S. cerevisiae [1]) was “highly fungilytic” and the “Myo2-GFP localizing to the bud neck/septum region” value (Myo2-GFP) was “prevented”. For the same compound, the “sensitivity of strains with hypofunctional alleles of CMD1” value (S. cerevisiae [4]; S. cerevisiae cmd1 mutants) was “hypersensitive”, the “effect of CMD1 overexpression on growth on tamoxifen plates” value (S. cerevisiae [4]; wild type S. cerevisiae overexpressing CMD1) was “suppressed toxicity” and the “effect of PKC1 overexpression on growth on tamoxifen plates” value (S. cerevisiae [4]; wild type S. cerevisiae overexpressing PKC1) was “exacerbated its effects”. The “ability of immobilized calmodulin to pull down Myo2-GFP” value (calmodulin with Myo2p) was “interferes”, the “lowering of kidney fungal burden” value (C. albicans [5]) was 1.5 log10 and the MIC (C. albicans [6]) was 32 µg/mL. The MIC (C. neoformans [7]) was 64 µg/mL.

With CN(C)CCOc1ccc(/C(=C(/CCCl)c2ccccc2)c2ccccc2)cc1 [toremifene] the “increase in AK release” value (C. neoformans [2]; at 4 μg/mL) was 12 fold, the “increase of phagocytosis of C. neoformans by J774 cells” value (C. neoformans [8]) was 2 fold and the MIC (C. albicans [6]) was 32 µg/mL. The “MIC lower than either tamoxifen or clomiphene” value (C. neoformans [7]) was 16 fold, the “increase of MIC at 30° C. relative to 37° C.” value (C. neoformans [7]) was 2 fold and the MIC (C. neoformans [7]) was 4 µg/mL.

With CCN(CC)CCOc1ccc(C(=C(Cl)c2ccccc2)c2ccccc2)cc1 [clomiphene] the lysis (C. albicans [3]) was “cause lysis”, the “AK assay result (fungilytic activity)” value (S. cerevisiae [1]) was “highly fungilytic” and the “AK release / lysis” value (C. neoformans [2]) was “cause lysis”. The “activity relative to tamoxifen” value (pathogenic yeast) was “consistently less active” and the MIC (C. neoformans [7]) was 64 µg/mL.

In the case of OC(Cn1cncn1)(Cn1cncn1)c1ccc(F)cc1F [fluconazole], the increase of phagocytosis (C. neoformans [9]; Nosanchuk et al.) is listed as 2 fold, the “AK assay result (fungilytic activity)” value (S. cerevisiae [1]) is listed as “negative; also recorded: not positive” and the MIC (C. neoformans [7]) is listed as 4 µg/mL.

In the case of CCCCCCCCNC(C)C(O)c1ccc(SC(C)C)cc1 (centres unmarked) [suloctidil], the antifungal activity [10] is given as “confirmed”.

In the case of COc1ccc(CCN2CCC(Nc3nc4ccccc4n3Cc3ccc(F)cc3)CC2)cc1 [astemizole], the “AK release / lysis” value (C. neoformans [2]) is listed as “caused lysis”, the antifungal activity [10] is listed as “confirmed” and the “fungicidal activity toward C. neoformans” value (C. neoformans [11]) is listed as “fungicidal”. The “interaction with FLC” value (C. neoformans [11]) was “synergistic”.

With CCCCc1oc2ccccc2c1C(=O)c1cc(I)c(OCCN(CC)CC)c(I)c1 [amiodarone] the “AK release / lysis” value (C. neoformans [2]) was “AK release was detected”.

In the case of C[C@@H]1[C@H](O)[C@@H](C)/C=C/C=C/C=C/C=C/C=C/C=C/C=C/[C@H](O[C@@H]2O[C@H](C)[C@@H](O)[C@H](N)[C@@H]2O)C[C@@H]2O[C@](O)(C[C@@H](O)C[C@@H](O)[C@H](O)CC[C@@H](O)C[C@@H](O)CC(=O)O[C@H]1C)C[C@H](O)[C@H]2C(=O)O [amphotericin B], the “efficiency by which macrophages phagocytose C. neoformans” value (C. neoformans [9]; background statement) is listed as “increase”.

In the case of COC1=CC(=O)C[C@@H](C)[C@]12Oc1c(Cl)c(OC)cc(OC)c1C2=O [griseofulvin], the “AK assay result (fungilytic activity)” value (S. cerevisiae [1]) was “negative; also recorded: not positive”.
